The values below come from patent US20260191766A1, “USE OF CONDITIONED MEDIUM DERIVED FROM CULTIVATION OF MESENCHYMAL STEM CELLS OF THE UMBILICAL CORD FOR INDUCING, STIMULATING AND PROMOTING HAIR GROWTH AND REGENERATION” (CELLRESEARCH CORPORATION PTE. LTD., priority 2022, published 2026).

Test [1] concerns COVID-19-induced scalp alopecia (telogen effluvium). As to the kind of experiment: Example 8: case study, COVID-19-induced telogen effluvium. Particulars: same patient; minoxidil and LED light treatment (Hairmax). In kind it is in vivo, human. The procedure: COVID-19-induced scalp Alopecia can induce telogen effluvium (TE) which refers to diffuse scalp alopecia. A patient with severe chronic TE with no spontaneous recovery after 6 months of hair loss and no response to conventional treatment of minoxidil and LED light treatment (Hairmax) was treated with a composition comprising conditioned medium derived from cultivation of mesenchymal stem cells of the umbilical cord (CALECIM® Advanced Hair System).
The scalp of the patient was progressively treated with rubbing with an alcohol swab, then 1 ml of a composition comprising conditioned medium derived from cultivation of mesenchymal stem cells of the umbilical cord was applied and massaged in till dry. The patient was advised to wait until evening to wash their hair. Five treatments of conditioned medium derived from cultivation of mesenchymal stem cells of the umbilical cord spaced a month apart were administered.

For test [2], the system named is human follicle dermal papilla cells (HFDPC). As to the kind of experiment: growth promotion on cultured human follicle dermal papilla cells (WST-8). In kind it is cell-based. From the text: Hair growth is controlled by a unique repetitive cycle comprised of anagen, catagen and telogen phases. Dermal papilla cells (DPCs), a group of specialized fibroblasts within the hair follicle bulb, have an essential function in the control of hair growth not only in the normal hair cycle but also in the pathogenesis of certain conditions, for example in androgenetic alopecia. Therefore, factors affecting the functions of DPCs in hair loss are of great importance from the therapeutic viewpoint. […] HFDPCs are either treated with different concentrations of Minodixil (0.0125-200 μg/mL; see Table 3, left column, serving as the reference) or conditioned medium of the invention at different dilutions (PC, dilution range from 10-1280 times; see third column of Table 3). The negative control (NC) refers to HFDPCs incubated with basal medium only. All data are shown as the mean±standard deviation (SD). For comparison of different treatments between 2 groups, the Student's t test was used. p<0.05 was considered significant, p<0.01 would normally be considered highly significant, and p<0.001 extremely significant. After calculation, p is 0.03.
In general terms: Formazan colour is commonly taken as a measure of viable cells.

The subject of the next test is elastin mRNA in HDFs. As to conditions: 24 hours, 1 ng/ml; cited from earlier work.

As to `Nc1cc(N2CCCCC2)nc(N)[n+]1[O-]` [Minoxidil], in test [1], the “response to conventional treatment before the study treatment” value is recorded as “no response”. For the same molecule, the “cell count of HFDPC (% of control)” value in test [2] (Minoxidil 0.0125 ug/mL) is given as 94 ± 0.6 % of control; in test [2] (Minoxidil 0.025 ug/mL) it was 92.2 ± 1.4 % of control; in test [2] (Minoxidil 0.05 ug/mL), 120.8 ± 4.8 % of control; in test [2] (Minoxidil 0.1 ug/mL) it was 120.8 ± 8.8 % of control; in test [2] (Minoxidil 0.2 ug/mL), 123.2 ± 8.4 % of control; in test [2] (Minoxidil 2 ug/mL) it was 124.5 ± 10.2 % of control. For the same molecule, the results for the “cell count of HFDPC (% of control)” value in test [2] (Minoxidil 20 ug/mL) and in test [2] (Minoxidil 200 ug/mL) were 98.5 ± 7.7 % of control and 43 ± 2.6 % of control, respectively. Moreover, the “more cells compared to negative control” value in test [2] (diluted 320 times) is given as “around 20%”.

Consider “TGF-β1: transforming growth factor, literature data”, for which, in the test on elastin mRNA in HDFs, the “maximum increase of elastin mRNA steady-state levels” value is 30 fold.

B1: TGF-β2: transforming growth factor, literature data (protein, UniProt P61812 303-414, looked up)
Transforming growth factor …: ALDAAYCFRNVQDNCCLRPLYIDFKRDLGWKWIHEPKGYNANFCAGACPYLWSSDTQHSRVLSLYNTINPEASASPCCVSQDLEPLTILYYIGKTPKIEQLSNMIVKSCKCS
As for B1, in the test on elastin mRNA in HDFs, the “maximum increase of elastin mRNA steady-state levels” value was 30 fold.
